These results are taken from ChEMBL document CHEMBL1795250, “Synthesis and base-pairing properties of C-nucleotides having 1-substituted 1H-1,2,3-triazoles” (Bioorg Med Chem Lett, 2009).

What all share (assay type): nucleic-acid assay
The test system of assay [1] is Nucleic Acid. Put plainly: Stabilization of 5'-AGAGAGAAAGAAAAA-3' ssDNA sequence assessed as melting temperature at pH7 using 100 mM NaCl.
The test system of assay [2] is Nucleic Acid. Put plainly: Stabilization of 5'-AGAGAGAGAGAAAAA-3' ssDNA sequence assessed as melting temperature at pH7 using 100 mM NaCl.
Assay [3] relates to Nucleic Acid. Put plainly: Stabilization of 5'-AGAGAGATAGAAAAA-3' ssDNA sequence assessed as melting temperature at pH7 using 100 mM NaCl.
Assay [4] relates to Nucleic Acid. Put plainly: Stabilization of 5'-AGAGAGACAGAAAAA-3' ssDNA sequence assessed as melting temperature at pH7 using 100 mM NaCl.

Consider `Cc1cn([C@H]2C[C@H](OP(=O)(O)OC[C@H]3O[C@@H](n4cc(C)c(=O)[nH]c4=O)C[C@@H]3OP(=O)(O)OC[C@H]3O[C@@H](n4cc(C)c(N)nc4=O)C[C@@H]3OP(=O)(O)OC[C@H]3O[C@@H](n4cc(C)c(=O)[nH]c4=O)C[C@@H]3OP(=O)(O)OC[C@H]3O[C@@H](n4cc(C)c(N)nc4=O)C[C@@H]3OP(=O)(O)OC[C@H]3O[C@@H](n4cc(C)c(=O)[nH]c4=O)C[C@@H]3O)[C@@H](COP(=O)(O)O[C@H]3C[C@H](n4cc(C)c(=O)[nH]c4=O)O[C@@H]3COP(=O)(O)O[C@H]3C[C@H](c4cn(-c5ccc(C(=O)O)cc5)nn4)O[C@@H]3COP(=O)(O)O[C@H]3C[C@H](n4cc(C)c(=O)[nH]c4=O)O[C@@H]3COP(=O)(O)O[C@H]3C[C@H](n4cc(C)c(N)nc4=O)O[C@@H]3COP(=O)(O)O[C@H]3C[C@H](n4cc(C)c(=O)[nH]c4=O)O[C@@H]3COP(=O)(O)O[C@H]3C[C@H](n4cc(C)c(=O)[nH]c4=O)O[C@@H]3COP(=O)(O)O[C@H]3C[C@H](n4cc(C)c(=O)[nH]c4=O)O[C@@H]3COP(=O)(O)O[C@H]3C[C@H](n4cc(C)c(=O)[nH]c4=O)O[C@@H]3COP(=O)(O)O[C@H]3C[C@H](n4cc(C)c(=O)[nH]c4=O)O[C@@H]3CO)O2)c(=O)nc1N`, for which the Tm in the assay on Nucleic Acid [1] turned out to be 33 °C; with Nucleic Acid [2], 38 °C; in the assay with Nucleic Acid [3], 33 °C; in the assay with Nucleic Acid [4], 33 °C.
Take `Cc1cn([C@H]2C[C@H](OP(=O)(O)OC[C@H]3O[C@@H](n4cc(C)c(=O)[nH]c4=O)C[C@@H]3OP(=O)(O)OC[C@H]3O[C@@H](n4cc(C)c(N)nc4=O)C[C@@H]3OP(=O)(O)OC[C@H]3O[C@@H](n4cc(C)c(=O)[nH]c4=O)C[C@@H]3O)[C@@H](COP(=O)(O)O[C@H]3C[C@H](n4cc(C)c(=O)[nH]c4=O)O[C@@H]3COP(=O)(O)O[C@H]3C[C@H](n4cc(C)c(N)nc4=O)O[C@@H]3COP(=O)(O)O[C@H]3C[C@H](n4cc(C)c(=O)[nH]c4=O)O[C@@H]3COP(=O)(O)O[C@H]3C[C@H](n4cc(C)c(=O)[nH]c4=O)O[C@@H]3COP(=O)(O)O[C@H]3C[C@H](n4cc(C)c(=O)[nH]c4=O)O[C@@H]3COP(=O)(O)O[C@H]3C[C@H](n4cc(C)c(N)nc4=O)O[C@@H]3COP(=O)(O)O[C@H]3C[C@H](n4cc(C)c(=O)[nH]c4=O)O[C@@H]3COP(=O)(O)O[C@H]3C[C@H](n4cc(C)c(=O)[nH]c4=O)O[C@@H]3COP(=O)(O)O[C@H]3C[C@H](n4cc(C)c(=O)[nH]c4=O)O[C@@H]3COP(=O)(O)O[C@H]3C[C@H](n4cc(C)c(=O)[nH]c4=O)O[C@@H]3COP(=O)(O)O[C@H]3C[C@H](n4cc(C)c(=O)[nH]c4=O)O[C@@H]3CO)O2)c(=O)nc1N`: the Tm stood at 52 °C in the assay with Nucleic Acid [1], 42 °C with Nucleic Acid [2], 42 °C in the assay with Nucleic Acid [3] and 39 °C in the assay on Nucleic Acid [4].
